“And” between values parts separate entries of the source, which are not always exact repeats. Equal values may be shown once. Inconclusive results and toxic doses are left out.

This assay has as its system L1210 leukemia ip in BDF1 mice, survival T/C. Briefly: NCI In Vivo Anticancer Drug Screen. Data for tumor model L1210 Leukemia (intraperitoneal) in B6D2F1 (BDF1) mice. The conditions noted are these: endpoint: mean survival time, higher = longer survival. In a few lines: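 Each compound was tested against a transplantable tumor grown in mice. The endpoint was survival, with treated animals benchmarked against vehicle controls as a simple ratio.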

Where [1] appears, read: dose: 100.0 mg/kg/injection, schedule: Q01DX009 (ip), vehicle: Klucel (hydroxypropylcellulose) (HPC).
Where [2] appears, read: dose: 100.0 mg/kg/injection, schedule: Q04DX003 (ip), vehicle: Klucel (hydroxypropylcellulose) (HPC).
Setting [3] is: dose: 200.0 mg/kg/injection, schedule: Q01DX009 (ip), vehicle: Klucel (hydroxypropylcellulose) (HPC).
Where [4] appears, read: dose: 200.0 mg/kg/injection, schedule: Q04DX003 (ip), vehicle: Klucel (hydroxypropylcellulose) (HPC).
Setting [5] is: dose: 400.0 mg/kg/injection, schedule: Q04DX003 (ip), vehicle: Klucel (hydroxypropylcellulose) (HPC).
[6] abbreviates: dose: 100.0 mg/kg/injection, schedule: Q04DX003 (ip), vehicle: saline with Tween-80.
The mark [7] stands for this setting: dose: 200.0 mg/kg/injection, schedule: Q04DX003 (ip), vehicle: saline with Tween-80.
Setting [8] is: dose: 400.0 mg/kg/injection, schedule: Q04DX003 (ip), vehicle: saline with Tween-80.
The mark [9] stands for this setting: dose: 100.0 mg/kg/injection, schedule: Q01DX001 (ip), vehicle: Klucel (hydroxypropylcellulose) (HPC).
[10] abbreviates: dose: 200.0 mg/kg/injection, schedule: Q01DX001 (ip), vehicle: Klucel (hydroxypropylcellulose) (HPC).
The mark [11] stands for this setting: dose: 12.5 mg/kg/injection, schedule: Q01DX009 (ip), vehicle: saline.
Setting [12] is: dose: 25.0 mg/kg/injection, schedule: Q01DX009 (ip), vehicle: saline.
[13] abbreviates: dose: 50.0 mg/kg/injection, schedule: Q01DX001 (ip), vehicle: carboxymethylcellulose (CMC).
Where [14] appears, read: dose: 100.0 mg/kg/injection, schedule: Q01DX001 (ip), vehicle: carboxymethylcellulose (CMC).
The mark [15] stands for this setting: dose: 100.0 mg/kg/injection, schedule: Q04DX002 (ip), vehicle: saline with Tween-80.
The mark [16] stands for this setting: dose: 200.0 mg/kg/injection, schedule: Q04DX002 (ip), vehicle: saline with Tween-80.
The mark [17] stands for this setting: dose: 400.0 mg/kg/injection, schedule: Q04DX002 (ip), vehicle: saline with Tween-80.

Consider `Cc1ccc([N+](=O)[O-])c(OC(=O)Nc2ccc(Cl)c(Cl)c2)c1`, for which the T/C is 101 % of control under setting [1]; 96 % of control and 106 % of control under setting [2]; 101 % of control under setting [3]; 88 % of control under setting [4]; 114 % of control (dose: 400.0 mg/kg/injection, schedule: Q01DX009 (ip), vehicle: Klucel (hydroxypropylcellulose) (HPC)); 87 % of control and 91 % of control under setting [5].
`O=C(NCCCCCCCCCCNC(=O)N1CC1)N1CC1`: the T/C was 94 % of control (dose: 0.12 mg/kg/injection, schedule: Q01DX Z (ip), vehicle: carboxymethylcellulose (CMC)); 96 % of control (dose: 0.25 mg/kg/injection, schedule: Q01DX Z (ip), vehicle: carboxymethylcellulose (CMC)); 115 % of control (dose: 0.4 mg/kg/injection, schedule: Q01DX Z (ip), vehicle: carboxymethylcellulose (CMC)); 108 % of control (dose: 0.5 mg/kg/injection, schedule: Q01DX Z (ip), vehicle: carboxymethylcellulose (CMC)); 110 % of control (dose: 0.5 mg/kg/injection, schedule: Q01DX Z (ip), vehicle: saline); 123 % of control (dose: 0.8 mg/kg/injection, schedule: Q01DX Z (ip), vehicle: carboxymethylcellulose (CMC)). The T/C (dose: 0.8 mg/kg/injection, schedule: Q01DX Z (ip), vehicle: saline) is 113 % of control; the T/C (dose: 1.0 mg/kg/injection, schedule: Q01DX Z (ip), vehicle: carboxymethylcellulose (CMC)) was 118 % of control; the T/C (dose: 1.2 mg/kg/injection, schedule: Q01DX Z (ip), vehicle: saline) was 124 % of control; the T/C (dose: 1.8 mg/kg/injection, schedule: Q01DX Z (ip), vehicle: carboxymethylcellulose (CMC)) was 155 % of control; the T/C (dose: 1.8 mg/kg/injection, schedule: Q01DX Z (ip), vehicle: saline) is 118 % of control; the T/C (dose: 2.6 mg/kg/injection, schedule: Q01DX Z (ip), vehicle: carboxymethylcellulose (CMC)) is 155 % of control and 160 % of control. Moreover, the T/C reads like this: (dose: 2.7 mg/kg/injection, schedule: Q01DX Z (ip), vehicle: saline) 168 % of control; (dose: 4.0 mg/kg/injection, schedule: Q01DX Z (ip), vehicle: carboxymethylcellulose (CMC)) 119 % of control; (dose: 5.0 mg/kg/injection, schedule: Q01DX001 (ip), vehicle: saline) 119 % of control; (dose: 6.0 mg/kg/injection, schedule: Q01DX Z (ip), vehicle: carboxymethylcellulose (CMC)) 96 % of control; (dose: 6.0 mg/kg/injection, schedule: Q01DX Z (ip), vehicle: saline) 112 % of control.
On to `CCCCC(=O)NS(=O)(=O)c1ccccc1`, for which the T/C is, setting by setting: (dose: 100.0 mg/kg/injection, schedule: Q01DX009 (ip), vehicle: saline with Tween-80) 92 % of control; under setting [6], 94 % of control; (dose: 200.0 mg/kg/injection, schedule: Q01DX009 (ip), vehicle: saline with Tween-80) 105 % of control; under setting [7], 101 % of control; (dose: 400.0 mg/kg/injection, schedule: Q01DX009 (ip), vehicle: saline with Tween-80) 107 % of control; under setting [8], 94 % of control.
For the compound `O=C1C(=O)C(C(=O)c2ccccc2)C(=O)C1C(=O)c1ccccc1` (stereo not given), the T/C is 109 % of control (dose: 55.0 mg/kg/injection, schedule: Q01DX Z (ip), vehicle: saline); 100 % of control (dose: 83.0 mg/kg/injection, schedule: Q01DX Z (ip), vehicle: saline); 93 % of control (dose: 125.0 mg/kg/injection, schedule: Q01DX Z (ip), vehicle: saline).
For `O=C(O)/C(=C\c1ccccc1[N+](=O)[O-])c1cccc(Cl)c1`, the T/C runs as follows: under setting [1], 90 % of control; under setting [3], 95 % of control.
As to `N#CC(c1ccc(Br)cc1)C1c2ccccc2-c2ccccc21` (stereo not given), the T/C is 93 % of control (dose: 50.0 mg/kg/injection, schedule: Q01DX001 (ip), vehicle: Klucel (hydroxypropylcellulose) (HPC)); 91 % of control under setting [9]; 86 % of control under setting [10].
On to `CCOCCNC1=C(Cl)C(=O)c2ccccc2C1=O`, for which the T/C runs as follows: (dose: 100.0 mg/kg/injection, schedule: Q01DX001 (ip), vehicle: other) 97 % of control; (dose: 200.0 mg/kg/injection, schedule: Q01DX001 (ip), vehicle: other) 93 % of control; (dose: 400.0 mg/kg/injection, schedule: Q01DX001 (ip), vehicle: other) 90 % of control.
With `CC1=C(/C=C\C(C)=N\NC(=O)c2ccc[n+](C)c2)C(C)(C)CCC1`, the T/C under setting [11] was 98 % of control; the T/C under setting [12] was 88 % of control; the T/C (dose: 50.0 mg/kg/injection, schedule: Q01DX009 (ip), vehicle: saline) was 104 % of control and 88 % of control.
As for `c1ccc2c3csc4ccccc4c-3nc2c1`, the T/C is 97 % of control (dose: 6.25 mg/kg/injection, schedule: Q01DX009 (ip), vehicle: saline); 101 % of control under setting [11]; 94 % of control (dose: 12.5 mg/kg/injection, schedule: Q04DX003 (ip), vehicle: Klucel (hydroxypropylcellulose) (HPC)); 103 % of control under setting [12]; 94 % of control (dose: 25.0 mg/kg/injection, schedule: Q04DX003 (ip), vehicle: Klucel (hydroxypropylcellulose) (HPC)); 91 % of control (dose: 35.0 mg/kg/injection, schedule: Q01DX009 (ip), vehicle: Klucel (hydroxypropylcellulose) (HPC)).
In the case of `CC(=O)Oc1cc(-c2ccccc2)c2oc(C)nc2c1-c1ccccc1`, the T/C under setting [2] is 101 % of control, the T/C under setting [4] was 103 % of control and the T/C under setting [5] is 93 % of control.
As for `O=C(O)/C(F)=C/c1ccccc1`, the T/C by setting is: under setting [13], 111 % of control; under setting [14], 103 % of control.
Turning to `CC(C)(C)NCC1CCCC1`, the T/C by setting is: (dose: 20.0 mg/kg/injection, schedule: Q04DX003 (ip), vehicle: saline) 109 % of control; (dose: 40.0 mg/kg/injection, schedule: Q04DX003 (ip), vehicle: saline) 115 % of control; (dose: 80.0 mg/kg/injection, schedule: Q04DX003 (ip), vehicle: saline) 111 % of control.
For the compound `CC(N=c1nc(N)ccn1C1OC(CO)C(O)C1O)C(=O)O` (stereo not given), under “dose: 200.0 mg/kg/injection, schedule: Q01DX005 (ip), vehicle: saline”, the T/C is 120 % of control.
`CS/C(N)=N\NC(N)=S`: the T/C runs as follows: under setting [9], 96 % of control; under setting [10], 88 % of control.
Take `CCCCS.[Pb]`: the T/C reads like this: under setting [6], 95 % of control; under setting [7], 95 % of control; under setting [8], 96 % of control.
Regarding `CCOC(=N)CC(O)C(Cl)(Cl)Cl` (stereo not given), the T/C under setting [15] was 99 % of control, the T/C under setting [16] is 103 % of control and the T/C under setting [17] was 92 % of control.
For `FC(F)(F)c1nc(=S)c2cn[nH]c2[nH]1`, the T/C is, setting by setting: (dose: 44.0 mg/kg/injection, schedule: Q01DX Z (ip), vehicle: methylcellulose (MC)) 100 % of control; (dose: 66.0 mg/kg/injection, schedule: Q01DX Z (ip), vehicle: methylcellulose (MC)) 91 % of control; (dose: 100.0 mg/kg/injection, schedule: Q01DX Z (ip), vehicle: methylcellulose (MC)) 95 % of control.
`CSC(=S)NNC(=O)c1ccc([N+](=O)[O-])cc1`: the T/C runs as follows: (dose: 6.25 mg/kg/injection, schedule: Q04DX003 (ip), vehicle: saline sonified) 96 % of control; (dose: 12.5 mg/kg/injection, schedule: Q04DX003 (ip), vehicle: saline sonified) 98 % of control.
As for `CC(C)(O)CNC(=O)c1cccc([N+](=O)[O-])c1`, the T/C under setting [2] was 94 % of control and the T/C under setting [4] is 88 % of control.
Turning to `O=C1OCC(C(=O)c2ccccc2)C1=Nc1ccccc1O` (stereo not given), the T/C was 94 % of control under setting [13]; 100 % of control under setting [14]; 100 % of control (dose: 200.0 mg/kg/injection, schedule: Q01DX001 (ip), vehicle: carboxymethylcellulose (CMC)); 92 % of control (dose: 400.0 mg/kg/injection, schedule: Q01DX001 (ip), vehicle: carboxymethylcellulose (CMC)).
On to `COc1ccc(C=Nc2ccc(C(=O)O)cc2)cc1`, for which the T/C runs as follows: under setting [15], 100 % of control; under setting [16], 110 % of control; under setting [17], 89 % of control.

(Values after PubChem BioAssay AID248 (DTP/NCI, 2004).)
